Source: article PMC10901194, “Boronic acid inhibitors of penicillin-binding protein 1b: serine and lysine labelling agents” (Journal of Enzyme Inhibition and Medicinal Chemistry, 2024)
≈ marks a conversion by molar mass, not a printed value. Where “and” joins values, the source holds several entries; their conditions need not be identical. Equal entries are not always repeated. Where two headings read alike, the source gives them in different places.

Assays:
PBP1b [1] = molecular target: T1, PBP1b (Streptococcus pneumoniae, UniProt Q7CRA4); test: PBP1b inhibition, hydrolysis of thioester substrate analogue (residual activity, IC50); format: biochemical
Procedure: The inhibitory activity of 26 compounds was tested in the assay[31] employing a thioester substrate analogue at a concentration of 500 and 50 µM (Table S1).
Residual activities were determined by the ability of a potential inhibitor to hinder the hydrolysis of substrate analogue thioester (2-((benzoyl-D-alanyl)thio)acetic acid) as already described. PBP1b, prepared according to literature[31] (0.8 µM), was incubated with potential inhibitor (final concentration 500 µM) in 10 mM sodium phosphate buffer (pH = 7.0) in the presence of 100 mM D-alanine, 0.01 mg/mL BSA, and 0.01% Triton-X-100 for 60 min at 25 °C. After preincubation, the 5,5′-dithiobis-(2-nitrobenzoic acid) (DTNB) and thioester were added to each well to initiate the reaction and to obtain a final concentration of 1 mM and 5 mM, respectively. The final volume of the reaction was 150 µL. The initial rate of thioester hydrolysis was determined by measuring the absorbance at 412 nm for 30 min using a microtiter 96-well plate and Biotek Synergy H4 Hybrid microplate reader. The same assay was performed in the absence of an inhibitor. […] All experiments were run in triplicate. The ratio of the rate of reaction with inhibitor to the rate of reaction without compound expressed as a percentage gives the (RA [%] = ((vi – b)/(vo – b)) * 100, where b is the blank value for the initial rate of spontaneous hydrolysis of the thioester in the presence of the potential inhibitor and in the absence of PBP1b). The IC50 values were determined by measuring the reaction rates at seven different inhibitor concentrations.

S. aureus (ATCC 29213) = test: Antimicrobial testing, broth microdilution (MIC); format: cell-based; details: Staphylococcus aureus, ATCC29213; S. aureus ATCC 29213, 20 h at 35 °C
Procedure: (§1) Antimicrobial testing was carried out by the broth microdilution method in 96-well plate format following the CLSI guidelines and European Committee for Antimicrobial Susceptibility Testing recommendations. Bacterial suspension of specific bacterial strain equivalent to 0.5 McFarland turbidity standard was diluted with cation-adjusted Mueller Hinton broth to obtain a final inoculum of 10^5 CFU/mL. Compounds dissolved in DMSO and inoculum were mixed together and incubated for 20 h at 35 °C. After incubation the minimal inhibitory concentration (MIC) values were determined by visual inspection as the lowest dilution of compounds showing no turbidity. The MICs were determined against S. aureus (ATCC 29213) and E. coli (ATCC 25922) bacterial strains. Tetracycline was used as a positive control on every assay plate.

E. coli (ATCC 25922) = test: Antimicrobial testing, broth microdilution (MIC); format: cell-based; details: Escherichia coli, ATCC25922; E. coli ATCC 25922, 20 h at 35 °C
Procedure: as §1

PBP1b [2] = molecular target: T1, PBP1b; test: LC-MS/MS covalent labelling of PBP1b; format: binding; details: 450-fold excess of compound, 45 °C, 2 h
Procedure: Further experimental study of 2-formylbenzeneboronic acid 29 and 30 was performed to characterise their binding.
The measurements were preformed analogously to those reported in Kollár et al. and Petri et al.[68]^,[69] The protein stock solution (20.0 µL and 37.0 µM) was diluted with buffer solution (20.0 µL; pH 7.0; 20 mM Hepes, 100 mM NaCl, 1 mM EDTA, and 10% glycerol), then the stock solution of the inhibitor (0.66 µL, 500 mM in DMSO) was added. The sample was incubated at 45 °C for 120 min and then subjected to LC-MS/MS measurements. The molecular weights of the conjugates of PBP1b were identified using a Triple TOF 5600+ hybrid Quadrupole-TOF LC/MS/MS system (Sciex, Singapore, Woodlands) equipped with a DuoSpray IonSource coupled with a Shimadzu Prominence LC20 UFLC (Shimadzu, Kyoto, Japan) system consisting of binary pump, an autosampler and a thermostated column compartment.
Data acquisition and processing were performed using Analyst TF software version 1.7.1 (AB Sciex Instruments, Redwood City, CA). Chromatographic separation was achieved on a Merck BIOshell^TM 400 Å Protein C18 (75 mm × 2.1mm, 3.4 µm, 400 Å) HPLC column. Sample was eluted in gradient elution mode using solvent A (0.1% formic acid in water) and solvent B (0.1% formic acid in ACN). […]

[3] = 1 h, pH 7, residual activity at 500 µM inhibitor, 60 min preincubation; read-out: RA [%] @500 µM
[4] = PBP1b 0.8 µM, 60 min preincubation at 25 °C, thioester substrate; read-out: IC50
[5] = 1 h, pH 7, Table S1, 50 µM, 60 min preincubation; read-out: RA%@50µM PBP1b S.pneumoniae, 60 min preincubation
[6] = 1 h, pH 7, Table S1, 500 µM, 60 min preincubation; read-out: RA%@500µM PBP1b S.pneumoniae, 60 min preincubation

| Structure (SMILES) | activity at 500 µM (PBP1b [1]; [3]) [%] | MIC (S. aureus (ATCC 29213)) [µM] | MIC (E. coli (ATCC 25922)) [µM] | IC50 (PBP1b [1]; [4]) | further results |
| --- | --- | --- | --- | --- | --- |
| O=C(C1Cc2cccc(F)c2O1)N1CCC(B(O)O)C1 (stereo not shown) [Compound 4] | 60.9 ± 7.6 |  |  |  |  |
| Cn1cc(C(=O)N2CCC(B(O)O)C2)nn1 (stereo not shown) [Compound 6] | 81.1 ± 1.6 |  |  |  |  |
| O=C(NCB(O)O)c1ccccc1F [Compound 9, reference compound] |  | > 250 | > 250 | 28.2 ± 7.4 µM | free energy gain in complex formation (ΔGdc) (PBP1b [1]; from IC50 accepted as approximation to Ki): -6.2 kcal/mol |
| O=C(c1ccn(-c2cccc([N+](=O)[O-])c2)n1)N1CCC(B(O)O)C1 (stereo not shown) [Compound 2] |  | 125 (≈ 41.3 µg/mL) | > 250 | 206 ± 21.7 µM | activity at 50 µM (PBP1b [1]; [5]): 83.5 ± 0.1%; activity at 500 µM (PBP1b [1]; [6]): < 50% |
| CC1(C)OB(C(CC(=O)Nc2ccccc2)NC(=O)c2ccccc2F)OC1(C)C (stereo not shown) [Compound 17] | 48.1 ± 2 |  |  |  |  |
| O=Cc1cc(C(F)(F)F)ccc1B(O)O [Compound 30] |  | > 250 | > 250 | 200 ± 15.3 µM | labelling of PBP1b in MS/MS experiments (PBP1b [2]): single labelling of PBP1b was observed; PBP1b inhibition (in words) (PBP1b [1]): inhibitors of PBP1b; time-dependent inhibition (PBP1b [1]): No time-dependent inhibition |
| CC(=O)c1ccccc1B(O)O [Compound 31] |  |  |  |  | PBP1b inhibition (in words) (PBP1b [1]): inactive; activity at 500 µM (PBP1b [1]; 1 h, pH 7; read-out: RA [%] @500 µM): 96.7% |
| O=Cc1ccccc1NCc1ccccc1B(O)O [Compound 33] | 56.9 ± 0.8 |  |  |  | PBP1b inhibition (in words) (PBP1b [1]): slight activity in the millimolar concentration range |
| CCC(=O)Nc1cccc(C(=O)N2CCC(B(O)O)C2)c1 (stereo not shown) [Compound 5] | 85.7 ± 9.5 |  |  |  |  |
| O=C(NC(CC(=O)N(Cc1ccccc1)Cc1ccccc1)B(O)O)c1ccccc1F (stereo not shown) [Compound 19] | 68.9 ± 8.2 | 62.5 (≈ 27.1 µg/mL) | > 250 |  |  |
| O=Cc1ccccc1B(O)O [Compound 29] |  | > 250 | > 250 | 119 ± 6 µM | labelling of PBP1b in MS/MS experiments (PBP1b [2]): single labelling of PBP1b was observed; PBP1b inhibition (in words) (PBP1b [1]): inhibitors of PBP1b; time-dependent inhibition (PBP1b [1]): No time-dependent inhibition |
| CC(NC(=O)c1ccc(B(O)O)cc1)C1CCC(F)(F)CC1 (stereo not shown) [Compound 1] |  | > 250 | > 250 | 127 ± 14.4 µM | activity at 50 µM (PBP1b [1]; [5]): 78.8 ± 2.7%; activity at 500 µM (PBP1b [1]; [6]): < 50% |
| Cc1cc(C(=O)N2CCC(B(O)O)C2)ccn1 (stereo not shown) [Compound 3] | 86.3 ± 8.4 |  |  |  |  |
| CC1(C)OB(c2ccccc2CNc2ccccc2C=O)OC1(C)C [Compound 32] | 96.6 ± 0.6 |  |  |  | PBP1b inhibition (in words) (PBP1b [1]): does not inhibit PBP1b at 1 mM concentration |
| C[C@H]1[C@H](NC(=O)/C(=N\OC(C)(C)C(=O)O)c2csc(N)n2)C(=O)N1S(=O)(=O)O [Aztreonam, reference compound] |  |  |  |  | activity at 500 µM (PBP1b [1]; 1 h, pH 7, read-out: RA [%] @500 µM): 1.4 ± 0.1%; IC50 (PBP1b [1]; IC50, PBP1b 0.8 µM, 60 min preincubation at 25 °C, thioester substrate): < 0.8 µM |
| Cn1cc(C(=O)NCB(O)O)nn1 [Compound 8] |  | > 250 | > 250 | ~213 µM and 213 µM |  |
| CC1(C)OB(C(CC(=O)N(Cc2ccccc2)Cc2ccccc2)NC(=O)c2ccccc2F)OC1(C)C (stereo not shown) [Compound 18] | 66.3 ± 7 |  |  |  |  |
